What was measured:
[1] = target: T1, VldE (Streptomyces hygroscopicus, UniProt Q15JG1); test: X-ray crystal structure; type: binding; settings: ternary complex with GDP, pH 8.0, open conformation
T1 construct: (His)6-tagged full-length protein, 497 residues per monomer, expressed in E. coli BL21(DE3) pLysS; homodimer; residues 1, 2 and 482-497 not modelled
T1 sequence (Q15JG1 1-497): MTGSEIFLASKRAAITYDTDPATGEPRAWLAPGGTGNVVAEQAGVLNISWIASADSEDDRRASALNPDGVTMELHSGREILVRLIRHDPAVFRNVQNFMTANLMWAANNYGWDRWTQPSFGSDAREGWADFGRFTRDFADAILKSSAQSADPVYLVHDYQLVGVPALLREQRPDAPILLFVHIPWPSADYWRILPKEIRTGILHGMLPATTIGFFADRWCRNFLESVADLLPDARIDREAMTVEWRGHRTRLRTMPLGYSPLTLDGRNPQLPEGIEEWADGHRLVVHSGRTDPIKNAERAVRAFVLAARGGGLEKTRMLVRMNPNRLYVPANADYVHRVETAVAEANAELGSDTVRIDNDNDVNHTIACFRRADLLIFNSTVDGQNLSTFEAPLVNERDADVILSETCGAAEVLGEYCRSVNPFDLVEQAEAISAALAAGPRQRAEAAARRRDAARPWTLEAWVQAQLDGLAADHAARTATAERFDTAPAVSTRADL

[2] = target: the molecule itself; test: crystal structure; sitting drop vapor diffusion, 293 K, Tris-HCl pH 8.0 with polyethylene glycol 3,350; two monomers modeled within the asymmetric unit (apo, GDP, GDP+VDO), six monomers in VldE•GDP•TRE

In the case of `OC[C@H]1O[C@H](O[C@H]2O[C@H](CO)[C@@H](O)[C@H](O)[C@H]2O)[C@H](O)[C@@H](O)[C@@H]1O` [TRE, trehalose], the X-ray crystal structure ([1]; 2.81 Å, 3% trehalose, 1 mM GDP, 20 mM MgCl2, cyclitol binding sites, bound in two of six monomers) is reported as “structure of VldE in complex with both GDP and trehalose (VldE•GDP•TRE)”.

In the case of `O=P(O)(O)OC[C@H]1C[C@H](N[C@H]2C=C(CO)[C@@H](O)[C@H](O)[C@H]2O)[C@H](O)[C@@H](O)[C@@H]1O` [VDO, validoxylamine A 7′-phosphate], the X-ray crystal structure ([1]; 2.11 Å, crystal soaked with 5 mM GDP and 10 mM VDO, cyclitol (donor and acceptor) sites) is reported as “The first crystallographic structure of VldE in complex with the entirety of its products”.

B1: VldE from S. hygroscopicus subsp. limoneus (enzyme)
chain: MTGSEIFLASKRAAITYDTDPATGEPRAWLAPGGTGNVVAEQAGVLNISWIASADSEDDRRASALNPDGVTMELHSGREILVRLIRHDPAVFRNVQNFMTANLMWAANNYGWDRWTQPSFGSDAREGWADFGRFTRDFADAILKSSAQSADPVYLVHDYQLVGVPALLREQRPDAPILLFVHIPWPSADYWRILPKEIRTGILHGMLPATTIGFFADRWCRNFLESVADLLPDARIDREAMTVEWRGHRTRLRTMPLGYSPLTLDGRNPQLPEGIEEWADGHRLVVHSGRTDPIKNAERAVRAFVLAARGGGLEKTRMLVRMNPNRLYVPANADYVHRVETAVAEANAELGSDTVRIDNDNDVNHTIACFRRADLLIFNSTVDGQNLSTFEAPLVNERDADVILSETCGAAEVLGEYCRSVNPFDLVEQAEAISAALAAGPRQRAEAAARRRDAARPWTLEAWVQAQLDGLAADHAARTATAERFDTAPAVSTRADL
notes: VldE, pseudo-glycosyltransferase of Streptomyces hygroscopicus subsp. limoneus; 994 possible residues for two monomers (497 each); the apo model lacks residues 1, 2 and 482-497; also called pseudo-glycosyltransferase VldE; (His)6-tagged VldE
B1: binds [2].
